Entries after “also recorded” stand apart in the source; their conditions may differ.
Key:
[1] = system: pancreatic ductal carcinoma PDX model; experiment: In vivo validation of CPT on patient derived xenographs; conditions: single agent treatment
Experimental: The cell lines were treated with standard (IC50) doses of commonly used chemotherapy drugs (5-FU, Paclitaxel, Oxaliplatin, Docetaxel, Gemcitabine, FOLFIRI). […] Experiments were conducted during development of embodiments herein to test CPT in vivo on patient derived xenographs (PDX) of pancreatic ductal carcinoma (FIG. 15i).

cancer cell lines [2] = experiment: Live cell PWS of chromatin folding/heterogeneity (D, Σ); format: cell-based; conditions: for capacity to reduce chromatin folding (D↓, Σ↓): PWS on live cells; for regulation of chromatin topology / heterogeneity: live cells, LC-PWS, within minutes of treatment where stated; for chromatin heterogeneity Σ: within 30 min, p<0.01; for structural alteration of chromatin folding: five cell line models (A2780, M248, MDA-MB-231, MES-SA, MX2)
Experimental: Test compounds were screened for CPT activity using live cell PWS imaging. Control and 30-60 minute CPT-treated cells were imaged with live cell PWS to determine their effect on nuclear nanoscale heterogeneity (See FIG. 11A for exemplary tested compounds). […]

HeLa cells [3] = experiment: Live cell PWS, mean nuclear Σ (chromatin nano-architecture); format: cell-based
Experimental: (§1) Prior to imaging, media within petri dishes was exchanged with fresh, RPMI-1640 Media (lacking phenol red pH indicator, purchased from Life Technologies) supplemented with 10% FBS (Sigma Aldrich, St. Louis Mo.). For DNA fragmentation experiments, live cell PWS images were acquired at room temperature (22° C.) and in trace CO2 (open air) conditions for cells subsequently stained with Hoechst 33342. During acquisition of time series data (UV and Controls, metabolic perturbation), cells were maintained at physiological conditions for the duration of the experiment. For imaging, a reference scattering spectra was obtained from an open surface of the substrate coverslip immersed in media prior to any cellular imaging to normalize the intensity of light scattered for each wavelength at each pixel. Σ is defined as the spectral standard deviation of our measured reflectance intensity normalized to this reference scattering spectra from the substrate-media interface. […] For Hoechst induced DNA damage experiments, significance was determined using Student's T-test with unpaired, unequal variance on nuclear Δ(Σ) between the conditions indicated in the experiment in both Mathematica v.10 and Microsoft Excel (Microsoft, Redmond, Wash.) with n=146 for Hoechst stained HeLa cells from 11 replicates and n=87 for Hoechst stained CHO cells from 5 replicates. […]

CHO cells [4] = experiment: as above; format: cell-based, Chinese Ovarian Hamster
Experimental: as §1

HeLa cells [5] = experiment: Mitochondrial membrane potential by TMRE flow cytometry; format: cell-based; conditions: 10 μM CCCP
Experimental: (§2) HeLa and CHO cells were grown and prepared for live cell imaging as previously described. Cell measurements for a single field of view were sequentially obtained for 3 minutes prior to treatment with CCCP. HeLa (n=31 from 6 independent experiments) and CHO (n=159 from 5 independent experiments) cells were treated with 10 μM for 15 minutes and imaged before and after treatment. Mock treated cells were incubated with 0.01% DMSO to account for the effect of DMSO solvent on the cells. […] Mitochondrial membrane potential ΔΨm was measured by flow cytometry (BD LSRII at the Northwestern Flow Cytometry Core) for tetramethylrhodamine (TMRE, purchased from Life Technologies, Carlsbad Calif.) stained cells. In brief, cells were trypsinized and immediately stained with 50 nM of TMRE for 30 minutes. Cells were washed twice with PBS after staining and suspended in 1 ml of PBS. CCCP treated cells were treated for 15 minutes to replicate conditions during live cell live cell PWS imaging. At least 20,000 cells were selected by forward and side scattering channels for each group, with a double elimination of doublets from the final analysis. Mean TMRE intensity from each replicate population was used for representative comparison between treated and untreated groups.

CHO cells [6] = experiment: as above; format: cell-based, Chinese Ovarian Hamster; conditions: 10 μM CCCP
Experimental: as §2

[7] = system: A2780.m248 ovarian cancer cells; experiment: Live cell PWS screen for CPT activity (mean nuclear sigma); format: cell-based; conditions: 30-60 minute treated cells
A2780 = experiment: Cell survival by surface coverage (% inhibition / cell death); conditions: Ovarian A2780; after 48 hours, surface coverage relative to control
A2780.m248 = experiment: as above; format: cell-based; conditions: for % Inhibition: Ovarian A2780.m248, after 48 hours, surface coverage relative to control
Experimental: These compounds were tested in combination with the chemotherapy drug paclitaxel.

cancer cell lines [8] = experiment: Single-cell sequencing of transcriptional heterogeneity; format: cell-based
Description: Although partial regulation of folding is achieved through molecular-specific chromatin remodelers (Refs. 12c, 40c; incorporated by reference in their entireties) (CTCF, SWI/SNF, histone modifications), a more efficient global regulation is governed by physico-chemical mechanisms (FIG. 16). A cardiovascular drug digoxin provides one such example.

MES-SA = experiment: Cell survival by surface coverage (% inhibition); format: cell-based; conditions: Sarcoma MES-SA
MES-SA MX2 = experiment: Cell survival by surface coverage (% inhibition); format: cell-based; conditions: Sarcoma MES-SA MX2
HeLa cells [9] = experiment: γ-H2A.X immunofluorescence (DNA fragmentation); format: cell-based; conditions: Hoechst-stained cells after UV excitation versus mock-stained
Experimental: Co-registration of live cell PWS imaging and DNA strand damage using phospho-histone H2A.X was performed by immunofluorescent staining on three independent experiments. Cells were fixed for 20 min with 4% paraformaldehyde at room temperature, washed twice with phosphate buffered saline and a permeabilization/blocking step was performed with 0.1% Triton X-100 in 1% bovine serum albumin (Sigma Aldrich, St. Louis Mo.) for 20 min. Cells were again washed twice with PBS and then incubated with AlexaFluor 488 conjugated to anti-γH2A.X (serine 139 residue) rabbit monoclonal antibody (Cell Signaling, Beverly, […].) for 30 minutes. Following incubation with the antibody, cells were imaged using the FITC-EGFP filter on the live cell PWS microscope.

MDA-MB-231 = experiment: Cell survival by surface coverage (% inhibition); conditions: Breast MDA-MB-231
A2780 cells = experiment: LC-PWS microscopy quantification of chromatin heterogeneity; format: cell-based; conditions: 5 nM for 24 hours

Cn1cc(C2=C(c3coc4ccc(F)cc34)C(=O)NC2=O)c2cc3c(cc21)OCO3 [9-ING-41] was tested, and the tumor size [1] was “continued to expand in size”, the “capacity to reduce chromatin folding (D↓, Σ↓)” value (cancer cell lines [2]) was “reduce chromatin folding” and the “Σ / CPT strength in multiple cancer cell lines” value (cancer cell lines [2]; colonic, pancreatic, ovarian, and mesothelioma lines) was “strong CPT; also recorded: decreases Σ”.
For N#CC(C#N)=NNc1cccc(Cl)c1 [CCCP, carbonyl cyanide m-chlorophenyl hydrazone], the “decrease in mean-nuclear Σ” value (HeLa cells [3]; 10 μM CCCP, 15 minutes) was 10%, the “change in mean-nuclear Σ” value (CHO cells [4]; 10 μM CCCP, 15 minutes) was “no significant increase” and the “decrease in TMRE fluorescence” value (HeLa cells [5]) was 10 fold. For the same compound, the “ΔΨm as gauged by TMRE fluorescence” value (HeLa cells [5]) was “rapidly lost ΔΨm”, the “regulation of chromatin topology / heterogeneity” value (cancer cell lines [2]) was “potent regulators of chromatin topology; also recorded: global regulators of chromatin heterogeneity” and the “change in TMRE fluorescence” value (CHO cells [6]) was “no significant change”.
In the case of Cc1ccc(-c2cc(C(F)(F)F)nn2-c2ccc(S(N)(=O)=O)cc2)cc1 [Celecoxib], the mean nuclear sigma [7] is reported as “decrease in mean nuclear sigma”, the “% Inhibition” value (A2780) is reported as 0% and the “capacity to reduce chromatin folding (D↓, Σ↓)” value (cancer cell lines [2]) is reported as “reduce chromatin folding”. The “regulation of chromatin topology / heterogeneity” value (cancer cell lines [2]) was “homogenization of chromatin; also recorded: potent regulators of chromatin topology; also recorded: global regulators of chromatin heterogeneity”, the “chromatin heterogeneity Σ” value (cancer cell lines [2]) was “Σ↓” and the “% Inhibition” value (A2780.m248) was 0%.
In the case of COc1cc(/C=C/C(=O)CC(=O)/C=C/c2ccc(O)c(OC)c2)ccc1O [Curcumin], the “capacity to reduce chromatin folding (D↓, Σ↓)” value (cancer cell lines [2]) is reported as “reduce chromatin folding”.
In the case of C[C@H]1O[C@@H](O[C@H]2[C@@H](O)C[C@H](O[C@H]3[C@@H](O)C[C@H](O[C@H]4CC[C@@]5(C)[C@H](CC[C@@H]6[C@@H]5C[C@@H](O)[C@]5(C)[C@@H](C7=CC(=O)OC7)CC[C@]65O)C4)O[C@@H]3C)O[C@@H]2C)C[C@H](O)[C@@H]1O [Digoxin, digoxin], the mean nuclear sigma [7] is reported as “decrease in mean nuclear sigma”, the “transcriptional divergence and heterogeneity” value (cancer cell lines [8]) is reported as “lower intracellular transcriptional divergence and intercellular heterogeneity” and the “capacity to reduce chromatin folding (D↓, Σ↓)” value (cancer cell lines [2]) is reported as “reduce chromatin folding”. For the same compound, the “chromatin D” value (cancer cell lines [2]; cell culture, within 30 min after application) was “D↓”, the “structural alteration of chromatin folding” value (cancer cell lines [2]) was “decreases chromatin folding” and the “regulation of chromatin topology / heterogeneity” value (cancer cell lines [2]) was “homogenization of chromatin; also recorded: potent regulators of chromatin topology; also recorded: global regulators of chromatin heterogeneity”. The “chromatin heterogeneity Σ” value (cancer cell lines [2]) was “Σ↓”.
For CC(=O)O[C@@]12CO[C@@H]1C[C@H](O)[C@@]1(C)C(=O)[C@H](O)C3=C(C)[C@@H](OC(=O)[C@H](O)[C@@H](NC(=O)OC(C)(C)C)c4ccccc4)C[C@@](O)([C@@H](OC(=O)c4ccccc4)[C@H]21)C3(C)C [Docetaxel], the “% Inhibition” value (MES-SA) was 65%, the “% Inhibition” value (MES-SA MX2) was 79% and the “structural alteration of chromatin folding” value (cancer cell lines [2]) was “increases”.
For O=C(O[C@@H]1Cc2c(O)cc(O)cc2O[C@@H]1c1cc(O)c(O)c(O)c1)c1cc(O)c(O)c(O)c1 [EGCG], the “capacity to reduce chromatin folding (D↓, Σ↓)” value (cancer cell lines [2]) was “reduce chromatin folding”.
With CCOc1ccc(-c2nc3ccc(-c4nc5ccc(N6CCN(C)CC6)cc5[nH]4)cc3[nH]2)cc1 [Hoechst 33342] the “decrease in mean-nuclear Σ” value (HeLa cells [3]; Hoechst-stained, after a few seconds of UV exposure (excitation)) was 17.01%, the “change (decrease) in mean-nuclear Σ” value (CHO cells [4]; Hoechst-stained, after UV exposure (excitation)) was −7.1% and the γ-H2A.X antibody accumulation (HeLa cells [9]) was “drastic accumulation”.
CC(=O)O[C@H]1C(=O)[C@@]2(C)[C@H]([C@H](OC(=O)c3ccccc3)[C@]3(O)C[C@H](OC(=O)[C@H](O)[C@@H](NC(=O)c4ccccc4)c4ccccc4)C(C)=C1C3(C)C)[C@]1(OC(C)=O)CO[C@@H]1C[C@@H]2O [Paclitaxel] was tested, and the “% Inhibition” value (MDA-MB-231) was 50%, the “% Inhibition” value (A2780) was 21% and the “structural alteration of chromatin folding” value (cancer cell lines [2]) was “increases”. The “Surface coverage relative to control (% survival)” value (A2780.m248; A2780.m248) was 43%, the “% Inhibition” value (A2780.m248) was 57% and the “chromatin heterogeneity after treatment” value (A2780 cells) was “increase in chromatin heterogeneity”.
CC(=O)Oc1ccccc1C(=O)O [aspirin] was tested, and the “capacity to reduce chromatin folding (D↓, Σ↓)” value (cancer cell lines [2]) was “reduce chromatin folding” and the “regulation of chromatin topology / heterogeneity” value (cancer cell lines [2]) was “potent regulators of chromatin topology; also recorded: global regulators of chromatin heterogeneity”.
For Nc1ccn([C@@H]2O[C@H](CO)[C@@H](O)C2(F)F)c(=O)n1 [gemcitabine], the tumor size [1] was “continued to expand in size”.
In the case of CC1=C(CC(=O)O)c2cc(F)ccc2/C1=C\c1ccc([S+](C)[O-])cc1 (stereo not shown) [sulindac], the “chromatin heterogeneity Σ” value (cancer cell lines [2]) is reported as “not”.
For CC(C)[C@@H]1NC(=O)[C@H](C)OC(=O)[C@@H](C(C)C)NC(=O)[C@@H](C(C)C)OC(=O)[C@H](C(C)C)NC(=O)[C@H](C)OC(=O)[C@@H](C(C)C)NC(=O)[C@@H](C(C)C)OC(=O)[C@H](C(C)C)NC(=O)[C@H](C)OC(=O)[C@@H](C(C)C)NC(=O)[C@@H](C(C)C)OC1=O [valinomycin], the “capacity to reduce chromatin folding (D↓, Σ↓)” value (cancer cell lines [2]) was “reduce chromatin folding” and the “regulation of chromatin topology / heterogeneity” value (cancer cell lines [2]) was “potent regulators of chromatin topology; also recorded: global regulators of chromatin heterogeneity”.
In the case of CCCC(CCC)C(=O)O [valproic acid], the “chromatin heterogeneity Σ” value (cancer cell lines [2]) is reported as “Σ↓”.
